Experimental data: ChEMBL document CHEMBL1151556, “Design and synthesis of new hypocholesterolemic organosilanes with antioxidant properties” (Bioorg Med Chem Lett, 1996)

Tests used:
Homo sapiens [1] = species: Homo sapiens; assay: Compound was evaluated for the inhibition of human LDL oxidation mediated by copper(II).; assay type: functional
HepG2 = assay: In vitro inhibition of cholesterol synthesis in HepG2 cells.; assay type: functional, cell-based; conditions: Homo sapiens
Rattus norvegicus = assay: Compound was evaluated in vivo for inhibition of cholesterol synthesis in rats upon oral administration.; assay type: functional
HUVEC = assay: (§1) Compound was evaluated for the inhibition of HUVEC-induced LDL oxidation; assay type: functional, cell-based; conditions: Homo sapiens
[2] = biological target: Squalene monooxygenase (Sus scrofa); assay: Compound was evaluated for the inhibition of pig liver microsomal squalene epoxidase.
Homo sapiens [3] = species: Homo sapiens; assay: as §1; assay type: functional, organism-based

Row | Compound | IC50 (Homo sapiens [1]) | IC50 (Homo sapiens [1]; Homo sapiens) | other results
1 | CCN(C/C=C/C#CC(C)(C)C)Cc1cccc(OC[Si](C)(C)c2ccccc2C)c1 | > 50 µM |  | IC50 (HepG2): 0.12 µM; ED50 (Rattus norvegicus): 3.2 mg/kg; IC50 (HUVEC): 50 µM; IC50 [2]: 0.03 µM
2 | CC(C)(CNc1ccccc1)c1ccccc1 |  | 100 µM | 
3 | CCN(C[Si](C)(C)c1ccccc1)c1ccccc1 |  | 15 µM | 
4 | COc1ccc(NC[Si](C)(C)c2ccccc2)cc1 |  | 3 µM | 
5 | CCN(C[Si](C)(C)c1ccccc1)c1ccc(C(F)(F)F)cc1 |  | 100 µM | 
6 | CCN(C[Si](C)(C)c1ccc(C(F)(F)F)cc1)c1ccccc1 |  | 20 µM | 
7 | C[Si](C)(CNc1ccccc1)c1ccccc1 |  | 7.8 µM | 
8 | CCN(C/C=C/C#CC(C)(C)C)Cc1cccc(NC[Si](C)(C)c2ccccc2C)c1 | 20 µM |  | IC50 (HepG2): 0.2 µM; ED50 (Rattus norvegicus): 10 mg/kg; IC50 (HUVEC): 7 µM
9 | CC(C)(Sc1cc(C(C)(C)C)c(O)c(C(C)(C)C)c1)Sc1cc(C(C)(C)C)c(O)c(C(C)(C)C)c1 [PROBUCOL] |  | 5.3 µM | 
10 | VITAMIN E | 10 µM |  | IC50 (Homo sapiens [3]): 13.6 µM
